For 26 compounds, IC50 results are on record in patent publication US10174016B2 (BAYER AKTIENGESELLSCHAFT, priority 2014, dated 2019).

pIC50: −log10 of the molar value. Like-named read-outs stand apart in the source and are kept apart here.

The target in assay [1] is human P2X2/3 receptor (Homo sapiens (Human), UniProt P56373+Q9UBL9). In words: Intracellular calcium measurement (FLIPR, Fluo-4) of antagonist activity at human P2X2/3 receptors. Type of assay: cell-based. The conditions noted are these: human P2X2/3, FLIPR calcium assay, agonist α,β-Me-ATP; read-out: hP2X2/3 IC50. The method, boiled down: (§1)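 Cells expressing human P2X3 or P2X2/3, loaded with Fluo-4, preincubated 30 min at 37° C. with compound (1% DMSO final), then challenged with α,β-Me-ATP at its EC80. Peak FLIPR fluorescence over 90 sec gave % response; IC50, maximal inhibition and Hill slope from triplicates.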
In general terms: Calcium assays in cells follow changes in intracellular calcium, usually with a dye or a luminescent sensor.

The target in assay [2] is human P2X3 receptor (Homo sapiens (Human), UniProt P56373). In words: Intracellular calcium measurement (FLIPR, Fluo-4) of antagonist activity at human P2X3 receptors. In kind it is cell-based. The settings on record: read-out: hP2X3 IC50. The method, boiled down:
as §1

Where [3] appears, read: human P2X3, FLIPR calcium assay, agonist α,β-Me-ATP.

human P2X3 receptor, sequence (P56373 whole entry): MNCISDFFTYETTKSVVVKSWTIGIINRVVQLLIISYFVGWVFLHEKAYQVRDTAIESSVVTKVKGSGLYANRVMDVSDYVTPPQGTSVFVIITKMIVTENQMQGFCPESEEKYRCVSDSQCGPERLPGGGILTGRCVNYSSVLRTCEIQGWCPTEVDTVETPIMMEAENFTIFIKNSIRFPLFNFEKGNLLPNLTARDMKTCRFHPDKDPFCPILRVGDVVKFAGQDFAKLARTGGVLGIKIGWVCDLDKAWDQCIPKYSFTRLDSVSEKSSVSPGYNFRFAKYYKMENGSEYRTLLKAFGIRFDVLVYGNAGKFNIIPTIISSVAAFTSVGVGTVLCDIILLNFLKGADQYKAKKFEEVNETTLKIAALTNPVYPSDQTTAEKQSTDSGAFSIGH
human P2X2/3 receptor, sequence (P56373 whole entry): as above
human P2X2/3 receptor, sequence (Q9UBL9 whole entry): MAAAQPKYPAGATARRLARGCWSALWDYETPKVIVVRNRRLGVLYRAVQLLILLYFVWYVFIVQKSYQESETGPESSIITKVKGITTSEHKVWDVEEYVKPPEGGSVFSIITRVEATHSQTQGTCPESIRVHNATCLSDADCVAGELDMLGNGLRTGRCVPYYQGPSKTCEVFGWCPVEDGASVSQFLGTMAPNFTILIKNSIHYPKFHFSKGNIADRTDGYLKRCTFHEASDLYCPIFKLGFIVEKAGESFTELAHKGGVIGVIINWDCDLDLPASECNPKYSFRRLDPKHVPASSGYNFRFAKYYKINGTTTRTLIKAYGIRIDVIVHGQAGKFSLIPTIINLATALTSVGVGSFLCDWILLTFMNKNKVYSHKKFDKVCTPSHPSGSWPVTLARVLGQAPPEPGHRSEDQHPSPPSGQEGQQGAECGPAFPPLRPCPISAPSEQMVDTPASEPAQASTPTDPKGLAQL

For `Cc1cnc(-c2cc(OC[C@@H]3CCOC3)cc(C(=O)NC(C)c3ncc(Cl)cc3F)c2)s1` (stereo partly drawn) [Example 78, N-[1-(5-Chloro-3-fluoropyridin-2-yl)ethyl]-3-(5-methyl-1,3-thiazol-2-yl)-5-[(3R)-tetrahydrofuran-3-ylmethoxy]benzamide], the results for the pIC50 in assay [1] and in assay [2] (setting [3]) were 7.08 and 8.22, respectively.

For the compound `Cc1cnc(-c2cc(OC[C@@H]3CCOC3)cc(C(=O)N[C@H](C)c3ccc(C(F)(F)F)nn3)c2)s1` [Example 79, 3-(5-Methyl-1,3-thiazol-2-yl)-5-[(3R)-tetrahydrofuran-3-ylmethoxy]-N-[(1R)-1-[6-(trifluoromethyl)pyridazin-3-yl]ethyl]benzamide], the pIC50 was 6.38 in assay [1] and 8.05 in assay [2] (setting [3]).

With `Cc1ccc([C@@H](C)NC(=O)c2cc(OC[C@H]3CCCO3)cc(-c3ncc(C4CCC4)s3)c2)nn1` [Example 270, 3-(5-cyclobutyl-1,3-thiazol-2-yl)-N-[(1R)-1-(6-methylpyridazin-3-yl)ethyl]-5-[(2R)-tetrahydrofuran-2-ylmethoxy]benzamide], the pIC50 in assay [1] was 7.00; in assay [2] (setting [3]), 7.60.

As to `CCc1cnc(-c2cc(O[C@@H]3CCOC3)cc(C(=O)N[C@H](C)c3cnc(C(F)(F)F)nc3)c2)s1` [Example 242, 3-(5-ethyl-1,3-thiazol-2-yl)-5-[(3R)-tetrahydrofuran-3-yloxy]-N-{(1R)-1-[2-(trifluoromethyl)pyrimidin-5-yl]ethyl}benzamide], the pIC50 in assay [1] was 7.66; in assay [2] (setting [3]), 8.70.

For `Cc1ccc([C@@H](C)NC(=O)c2cc(OCC3CCOCC3)cc(-c3ncc(C)s3)c2)nn1` [Example 99, N-[(1R)-1-(6-Methylpyridazin-3-yl)ethyl]-3-(5-methyl-1,3-thiazol-2-yl)-5-(tetrahydro-2H-pyran-4-ylmethoxy)benzamide], the pIC50 is 7.57 in assay [1] and 8.70 in assay [2] (setting [3]).

On to `COC(=O)N1CCO[C@H](COc2cc(C(=O)N[C@H](C)c3cnc(C(F)(F)F)nc3)cc(-c3ncc(C)s3)c2)C1` [Example 393, methyl (2S)-2-{[3-(5-methyl-1,3-thiazol-2-yl)-5-({(1R)-1-[2-(trifluoromethyl)pyrimidin-5-yl]ethyl}carbamoyl)phenoxy]methyl}morpholine-4-carboxylate], for which the pIC50 was 5.99 in assay [1] and 7.62 in assay [2] (setting [3]).

In the case of `Cc1ccc([C@@H](C)NC(=O)c2cc(OC3CCN(CC(F)F)CC3)cc(-c3ncc(C)s3)c2)nn1` [Example 305, 3-{[1-(2,2-difluoroethyl)piperidin-4-yl]oxy}-N-[(1R)-1-(6-methylpyridazin-3-yl)ethyl]-5-(5-methyl-1,3-thiazol-2-yl)benzamide], the pIC50 is 7.36 in assay [1] and 8.05 in assay [2] (setting [3]).

For the compound `Cc1cnc(-c2cc(O[C@H]3CCN(C(C)C)C3)cc(C(=O)N[C@H](C)c3cnc(C(F)(F)F)nc3)c2)s1` [Example 225, 3-(5-methyl-1,3-thiazol-2-yl)-5-{[(3S)-1-(propan-2-yl)pyrrolidin-3-yl]oxy}-N-{(1R)-1-[2-(trifluoromethyl)pyrimidin-5-yl]ethyl}benzamide], the pIC50 in assay [1] is 5.94; in assay [2] (setting [3]) it was 7.80.

In the case of `Cc1cnc(-c2cc(OC[C@@H]3COCCN3C)cc(C(=O)N[C@H](C)c3ccc(C(F)(F)F)nn3)c2)s1` [Example 389, 3-{[(3S)-4-methylmorpholin-3-yl]methoxy}-5-(5-methyl-1,3-thiazol-2-yl)-N-{(1R)-1-[6-(trifluoromethyl)pyridazin-3-yl]ethyl}benzamide], the results for the pIC50 in assay [1] and in assay [2] (setting [3]) were 5.79 and 7.74, respectively.

For `Cc1ncc([C@@H](C)NC(=O)c2cc(OC3CCN(CC(F)(F)F)CC3)cc(-c3ncc(C)s3)c2)cn1` [Example 315, N-[(1R)-1-(2-methylpyrimidin-5-yl)ethyl]-3-(5-methyl-1,3-thiazol-2-yl)-5-{[1-(2,2,2-trifluoroethyl)piperidin-4-yl]oxy}benzamide], the pIC50 in assay [1] was 6.80; in assay [2] (setting [3]), 8.10.

On to `Cc1cnc([C@@H](C)NC(=O)c2cc(OCC3CC3)cc(-c3ncc(C)s3)c2)cn1` [Example 4, 3-(Cyclopropylmethoxy)-N-[(1R)-1-(5-methylpyrazin-2-yl)ethyl]-5-(5-methyl-1,3-thiazol-2-yl)benzamide], for which the pIC50 is 7.01 in assay [1] and 8.05 in assay [2] (setting [3]).

Consider `Cc1cnc(-c2cc(OC3CCN(C)CC3)cc(C(=O)N[C@H](C)c3cnc(C(F)F)nc3)c2)s1` [Example 215], for which the pIC50 in assay [1] is 6.00; in assay [2], 7.80.

`Cc1cnc(-c2cc(O[C@H]3C[C@H]4CC[C@@H](C3)N4C)cc(C(=O)N[C@H](C)c3cnc(C(F)(F)F)nc3)c2)s1` [Example 216, 3-{[(3-endo)-8-methyl-8-azabicyclo[3.2.1]oct-3-yl]oxy}-5-(5-methyl-1,3-thiazol-2-yl)-N-{(1R)-1-[2-(trifluoromethyl)pyrimidin-5-yl]ethyl} benzamide]: the pIC50 in assay [1] is 6.03; in assay [2] (setting [3]) it was 7.85.

Take `Cc1cnc([C@@H](C)NC(=O)c2cc(Oc3nccs3)cc(-c3ncc(C)s3)c2)cn1` [Example 112, N-[(1R)-1-(5-Methylpyrazin-2-yl)ethyl]-3-(5-methyl-1,3-thiazol-2-yl)-5-(1,3-thiazol-2-yloxy)benzamide]: the pIC50 was 6.11 in assay [1] and 7.21 in assay [2].

For the compound `Cc1cnc([C@@H](C)NC(=O)c2cc(Oc3ccnc(C)c3)cc(-c3ncc(C)s3)c2)cn1` [Example 102, N-[(1R)-1-(5-Methylpyrazin-2-yl)ethyl]-3-[(2-methylpyridin-4-yl)oxy]-5-(5-methyl-1,3-thiazol-2-yl)benzamide], the pIC50 is 7.24 in assay [1] and 8.00 in assay [2] (setting [3]).

On to `C#CCOc1cc(C(=O)N[C@H](C)c2cnc(C)nc2)cc(-c2ncc(C)s2)c1` [Example 39, N-[(1R)-1-(2-Methylpyrimidin-5-yl)ethyl]-3-(5-methyl-1,3-thiazol-2-yl)-5-(prop-2-yn-1-yloxy)benzamide], for which the results for the pIC50 in assay [1] and in assay [2] (setting [3]) were 5.78 and 7.09, respectively.

As to `Cc1cnc(CNC(=O)c2cc(Oc3ccnc(C)c3)cc(-c3ncc(C)s3)c2)cn1` [Example 104, N-[(5-Methylpyrazin-2-yl)methyl]-3-[(2-methylpyridin-4-yl)oxy]-5-(5-methyl-1,3-thiazol-2-yl)benzamide], the pIC50 in assay [1] was 6.42; in assay [2] (setting [3]) it was 7.29.

As to `CC(C)c1cnc(-c2cc(O[C@@H]3CCOC3)cc(C(=O)N[C@H](C)c3ccc(C(F)(F)F)nn3)c2)s1` [Example 294, 3-[5-(propan-2-yl)-1,3-thiazol-2-yl]-5-[(3R)-tetrahydrofuran-3-yloxy]-N-{(1R)-1-[6-(trifluoromethyl)pyridazin-3-yl]ethyl}benzamide], the pIC50 in assay [1] was 5.97; in assay [2] (setting [3]), 7.00.

Take `Cc1cnc(-c2cc(OC[C@@H]3CN(C)C(=O)O3)cc(C(=O)N[C@H](C)c3cnc(C(F)(F)F)nc3)c2)s1` [Example 397, 3-{[(5S)-3-methyl-2-oxo-1,3-oxazolidin-5-yl]methoxy}-5-(5-methyl-1,3-thiazol-2-yl)-N-{(1R)-1-[2-(trifluoromethyl)pyrimidin-5-yl]ethyl}benzamide]: the pIC50 in assay [1] was 5.87; in assay [2] (setting [3]), 7.82.

Consider `Cc1ccc([C@@H](C)NC(=O)c2cc(OC3CCOCC3)cc(-c3ncc(Cl)s3)c2)nn1` [Example 325, 3-(5-chloro-1,3-thiazol-2-yl)-N-[(1R)-1-(6-methylpyridazin-3-yl)ethyl]-5-(tetrahydro-2H-pyran-4-yloxy)benzamide], for which the pIC50 in assay [1] was 6.63; in assay [2] (setting [3]) it was 7.59.

Take `Cc1cnc(-c2cc(O[C@@H]3C[C@H]4CC[C@@H](C3)N4C)cc(C(=O)N[C@H](C)c3cnc(C(F)(F)F)nc3)c2)s1` [Example 217, 3-{[(3-exo)-8-methyl-8-azabicyclo[3.2.1]oct-3-yl]oxy}-5-(5-methyl-1,3-thiazol-2-yl)-N-{(1R)-1-[2-(trifluoromethyl)pyrimidin-5-yl]ethyl} benzamide]: the values for the pIC50 in assay [1] and in assay [2] (setting [3]) were 5.76 and 7.60, respectively.

Regarding `Cc1cnc(-c2cc(OC[C@H]3CN(C)CCO3)cc(C(=O)N[C@H](C)c3ccc(C(F)F)nc3)c2)s1` [Example 369, N-{(1R)-1-[6-(difluoromethyl)pyridin-3-yl]ethyl}-3-{[(2R)-4-methylmorpholin-2-yl]methoxy}-5-(5-methyl-1,3-thiazol-2-yl)benzamide], the pIC50 in assay [1] is 6.48; in assay [2] (setting [3]) it was 7.96.

As to `Cc1cnc(-c2cc(OC3CN(C)C3)cc(C(=O)N[C@H](C)c3cnc(C(F)(F)F)nc3)c2)s1` [Example 143, 3-[(1-Methylazetidin-3-yl)oxy]-5-(5-methyl-1,3-thiazol-2-yl)-N-{(1R)-1-[2-(trifluoromethyl)pyrimidin-5-yl]ethyl}benzamide], the pIC50 in assay [1] was 5.52; in assay [2] (setting [3]), 7.08.

Regarding `CCc1cnc(-c2cc(OC[C@@H]3CNCCO3)cc(C(=O)N[C@H](C)c3ccc(C(F)(F)F)nn3)c2)s1` [Example 414, 3-(5-ethyl-1,3-thiazol-2-yl)-5-[(2S)-morpholin-2-ylmethoxy]-N-{(1R)-1-[6-(trifluoromethyl)pyridazin-3-yl]ethyl}benzamide], the pIC50 in assay [1] is 5.64; in assay [2] (setting [3]) it was 7.54.

In the case of `Cc1cnc(-c2cc(OC3CCOCC3)cc(C(=O)NC(C)c3ncc(F)cc3Cl)c2)s1` (stereo not shown) [Example 80, N-[1-(3-Chloro-5-fluoropyridin-2-yl)ethyl]-3-(5-methyl-1,3-thiazol-2-yl)-5-(tetrahydro-2H-pyran-4-yloxy)benzamide], the figures for the pIC50 in assay [1] and in assay [2] (setting [3]) were 6.47 and 7.92, respectively.

On to `CC(C)c1cnc(-c2cc(OC[C@H]3CCCO3)cc(C(=O)N[C@H](C)c3ccc(C(F)(F)F)nn3)c2)s1` [Example 299, 3-[5-(propan-2-yl)-1,3-thiazol-2-yl]-5-[(2R)-tetrahydrofuran-2-ylmethoxy]-N-{(1R)-1-[6-(trifluoromethyl)pyridazin-3-yl]ethyl}benzamide], for which the pIC50 in assay [1] was 6.24; in assay [2] (setting [3]), 7.43.
